Data reported in patent publication US6586416B2, “Methods of treatment using an epithelial sodium channel blocker and an inhibitor of the mineralocorticoid receptor” (priority 2001, dated 2003).

Experiments:
Type in all cases: cell-based
[1] = tested on: amiloride-sensitive sodium conductance (ENaC); experiment: Whole-cell patch clamp of rabbit collecting duct principal cells; conditions: for mean current measured at EK+ (−80 mV): statistical analysis, aldosterone, then vasopressin, then amiloride
Method: (§1) Collecting ducts were manually dissected from sagittal slices obtained from 50 gram Sprague Dawley rats and 0.5 Kg New Zealand White rabbits. The dissected collecting ducts were suspended in RPMI 1640 culture medium supplemented with 1.5 mg/ml collagenase A (Boehringer Mannheim, Mannhein, Germany). The collecting ducts were enzymatically digested for 1.5 hours to isolate individual cells. The digested cells were washed in serum-free RPMI and placed in a perfusion chamber mounted on the stage of an inverted microscope. The whole-cell patch clamp configuration was established and initial current measurements were made in un-supplemented RPMI. […] To block the cytosolic mineralocorticoid receptor, some cells were suspended in RPMI supplemented with spironolactone for 1 hour prior to whole-cell patch clamping.
Studies were conducted using both whole cell patch clamp and single channel patch clamp techniques. Whole-cell clamped rabbit principal cells were exposed to 100 nM aldosterone. […] No cells failed both tests. […] ENa+ was approximately +60 mV with the ionic gradients present. The activated current was carried exclusively by sodium. In a separate set of experiments rabbit principal cells were re-suspended in RPMI supplemented with 1 μM spironolactone for 1 hour prior to use for whole-cell patch clamp. This concentration is sufficient to inhibit completely the mineralocorticoid receptor.

[2] = molecular target: T1, amiloride-sensitive sodium conductance (ENaC) (Rattus norvegicus, UniProt P37089+P37090+P37091); experiment: Whole-cell patch clamp of rat collecting duct principal cells; conditions: for mean current measured at EK+ (−80 mV): statistical analysis, then vasopressin, then amiloride
T1 construct: Collecting ducts were manually dissected from sagittal slices obtained from 50 gram Sprague Dawley rats and 0.5 Kg New Zealand White rabbits; from tissue; host or cells: principal cells isolated from kidney collecting ducts of Sprague Dawley rats
T1 sequence (P37089 1-698): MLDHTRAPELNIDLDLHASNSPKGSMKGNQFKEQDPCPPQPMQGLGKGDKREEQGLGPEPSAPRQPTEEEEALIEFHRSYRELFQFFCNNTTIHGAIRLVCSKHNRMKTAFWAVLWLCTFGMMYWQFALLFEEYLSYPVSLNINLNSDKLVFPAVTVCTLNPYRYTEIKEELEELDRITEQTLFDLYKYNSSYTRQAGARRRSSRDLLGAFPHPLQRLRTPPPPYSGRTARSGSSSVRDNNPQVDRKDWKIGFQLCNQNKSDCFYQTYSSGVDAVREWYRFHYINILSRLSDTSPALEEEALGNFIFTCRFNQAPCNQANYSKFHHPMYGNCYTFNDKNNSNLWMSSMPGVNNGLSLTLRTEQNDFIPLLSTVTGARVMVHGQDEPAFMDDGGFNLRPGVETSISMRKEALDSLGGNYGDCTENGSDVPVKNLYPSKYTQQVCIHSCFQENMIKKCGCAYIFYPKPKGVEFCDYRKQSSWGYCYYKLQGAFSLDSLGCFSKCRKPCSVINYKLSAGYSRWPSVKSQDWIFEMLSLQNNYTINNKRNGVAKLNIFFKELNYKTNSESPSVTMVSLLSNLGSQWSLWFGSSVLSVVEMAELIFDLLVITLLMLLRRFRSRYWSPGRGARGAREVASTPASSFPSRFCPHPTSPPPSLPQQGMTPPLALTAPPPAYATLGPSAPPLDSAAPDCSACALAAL
T1 sequence (P37090 1-638): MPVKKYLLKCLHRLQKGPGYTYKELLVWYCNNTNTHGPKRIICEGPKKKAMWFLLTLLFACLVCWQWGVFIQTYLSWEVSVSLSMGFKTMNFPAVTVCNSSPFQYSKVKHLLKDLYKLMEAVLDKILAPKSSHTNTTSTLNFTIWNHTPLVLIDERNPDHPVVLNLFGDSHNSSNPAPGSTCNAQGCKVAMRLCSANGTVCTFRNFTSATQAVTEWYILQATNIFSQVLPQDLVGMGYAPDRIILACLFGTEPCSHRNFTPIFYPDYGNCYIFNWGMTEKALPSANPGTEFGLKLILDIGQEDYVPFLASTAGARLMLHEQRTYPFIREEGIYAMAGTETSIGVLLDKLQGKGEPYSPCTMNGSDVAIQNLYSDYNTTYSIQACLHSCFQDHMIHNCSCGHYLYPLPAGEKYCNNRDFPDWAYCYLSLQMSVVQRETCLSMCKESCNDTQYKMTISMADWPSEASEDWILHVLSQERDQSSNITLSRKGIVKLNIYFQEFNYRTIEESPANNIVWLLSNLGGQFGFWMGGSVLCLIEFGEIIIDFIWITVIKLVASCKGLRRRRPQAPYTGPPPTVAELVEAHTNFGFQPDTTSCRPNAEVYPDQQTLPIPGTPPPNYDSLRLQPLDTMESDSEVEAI
T1 sequence (P37091 1-650): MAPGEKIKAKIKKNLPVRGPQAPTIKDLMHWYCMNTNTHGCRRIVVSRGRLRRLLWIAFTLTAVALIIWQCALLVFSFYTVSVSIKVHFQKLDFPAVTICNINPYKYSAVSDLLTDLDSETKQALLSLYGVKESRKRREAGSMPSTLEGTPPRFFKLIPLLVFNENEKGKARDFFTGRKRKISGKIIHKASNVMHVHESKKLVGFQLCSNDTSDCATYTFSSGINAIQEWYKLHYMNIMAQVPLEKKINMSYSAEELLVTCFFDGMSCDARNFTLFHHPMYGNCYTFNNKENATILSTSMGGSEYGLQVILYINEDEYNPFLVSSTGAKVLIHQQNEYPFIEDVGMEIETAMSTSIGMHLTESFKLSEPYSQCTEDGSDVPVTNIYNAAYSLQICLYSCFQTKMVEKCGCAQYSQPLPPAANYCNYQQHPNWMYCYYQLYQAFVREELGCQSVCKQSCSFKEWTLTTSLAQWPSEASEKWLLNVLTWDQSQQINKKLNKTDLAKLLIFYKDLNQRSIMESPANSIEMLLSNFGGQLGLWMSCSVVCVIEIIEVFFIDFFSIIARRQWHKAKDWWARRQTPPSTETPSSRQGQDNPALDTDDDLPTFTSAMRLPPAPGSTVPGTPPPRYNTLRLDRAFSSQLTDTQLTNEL
Method: as §1
The same protocol was carried out on rabbit principal cells.

[3] = molecular target: T2, ENaC (Homo sapiens, UniProt P37088+P51168+P51170); experiment: Single channel patch clamp (outside-out patches) of human lymphocytes
T2 construct: Human and canine lymphocytes were isolated from peripheral blood samples by differential centrifugation over ficoll paque; endogenous in cells; host or cells: human peripheral blood lymphocytes
T2 sequence (P37088 1-669): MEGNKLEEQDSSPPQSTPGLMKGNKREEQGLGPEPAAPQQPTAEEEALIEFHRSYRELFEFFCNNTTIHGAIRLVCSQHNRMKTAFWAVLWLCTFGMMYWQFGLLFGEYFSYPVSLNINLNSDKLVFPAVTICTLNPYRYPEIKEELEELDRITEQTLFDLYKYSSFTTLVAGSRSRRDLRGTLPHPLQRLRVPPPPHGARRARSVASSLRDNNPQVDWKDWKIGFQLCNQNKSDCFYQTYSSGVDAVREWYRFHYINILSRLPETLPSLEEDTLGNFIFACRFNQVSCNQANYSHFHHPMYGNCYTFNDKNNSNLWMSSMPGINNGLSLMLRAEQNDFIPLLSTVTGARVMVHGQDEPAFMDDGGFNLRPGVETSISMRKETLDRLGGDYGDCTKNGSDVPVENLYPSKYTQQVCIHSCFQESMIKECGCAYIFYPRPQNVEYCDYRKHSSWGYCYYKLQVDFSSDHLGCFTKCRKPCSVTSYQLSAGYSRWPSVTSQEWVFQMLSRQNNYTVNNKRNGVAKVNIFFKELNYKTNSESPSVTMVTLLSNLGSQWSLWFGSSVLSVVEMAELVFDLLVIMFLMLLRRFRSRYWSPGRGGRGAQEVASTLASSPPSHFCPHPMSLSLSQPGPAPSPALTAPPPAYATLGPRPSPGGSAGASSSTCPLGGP
T2 sequence (P51168 1-640): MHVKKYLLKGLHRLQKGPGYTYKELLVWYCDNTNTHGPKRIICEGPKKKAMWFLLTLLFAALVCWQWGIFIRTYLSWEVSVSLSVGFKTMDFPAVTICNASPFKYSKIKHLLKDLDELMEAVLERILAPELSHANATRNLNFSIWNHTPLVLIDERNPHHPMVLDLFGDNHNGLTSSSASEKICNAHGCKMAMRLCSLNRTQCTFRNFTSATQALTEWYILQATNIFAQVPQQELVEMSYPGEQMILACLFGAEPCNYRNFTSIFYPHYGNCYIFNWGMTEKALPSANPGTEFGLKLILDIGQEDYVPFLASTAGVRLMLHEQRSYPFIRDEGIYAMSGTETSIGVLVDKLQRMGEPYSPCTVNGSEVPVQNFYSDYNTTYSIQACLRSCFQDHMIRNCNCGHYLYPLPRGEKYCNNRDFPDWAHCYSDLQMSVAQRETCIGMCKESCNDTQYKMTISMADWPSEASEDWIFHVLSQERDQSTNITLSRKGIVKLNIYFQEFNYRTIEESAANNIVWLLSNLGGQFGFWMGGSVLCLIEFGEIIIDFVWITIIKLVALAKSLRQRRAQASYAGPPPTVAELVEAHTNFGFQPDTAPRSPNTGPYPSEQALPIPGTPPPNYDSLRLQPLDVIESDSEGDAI
T2 sequence (P51170 1-649): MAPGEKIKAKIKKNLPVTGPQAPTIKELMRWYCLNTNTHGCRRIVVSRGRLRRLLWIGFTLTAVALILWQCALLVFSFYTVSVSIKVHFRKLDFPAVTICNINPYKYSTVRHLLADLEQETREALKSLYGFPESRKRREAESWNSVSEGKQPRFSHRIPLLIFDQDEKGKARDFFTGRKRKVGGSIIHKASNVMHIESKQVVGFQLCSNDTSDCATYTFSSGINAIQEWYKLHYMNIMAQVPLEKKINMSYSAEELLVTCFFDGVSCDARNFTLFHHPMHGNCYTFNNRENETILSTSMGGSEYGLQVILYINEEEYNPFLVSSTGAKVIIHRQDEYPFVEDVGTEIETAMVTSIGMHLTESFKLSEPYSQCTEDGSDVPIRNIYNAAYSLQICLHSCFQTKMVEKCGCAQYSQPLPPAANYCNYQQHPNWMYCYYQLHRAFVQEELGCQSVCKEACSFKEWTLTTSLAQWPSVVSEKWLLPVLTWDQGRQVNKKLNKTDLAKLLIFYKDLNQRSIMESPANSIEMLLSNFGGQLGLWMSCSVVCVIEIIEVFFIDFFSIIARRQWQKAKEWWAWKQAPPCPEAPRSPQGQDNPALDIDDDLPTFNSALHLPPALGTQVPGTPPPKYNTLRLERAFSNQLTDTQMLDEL
Method: Human and canine lymphocytes were isolated from peripheral blood samples by differential centrifugation over ficoll paque (Pharmacia Biotech, Uppsala, Sweden). The cells were washed and re-suspended in serum-free RPMI. Subsequently, suspended cells were placed in the perfusion chamber. Whole-cell patch clamp and testing of aldosterone were carried out using identical techniques and protocols as described for principal cells. Rabbit, rat and mouse lymphocytes were obtained by mincing sections of spleen and manually freeing the cells by agitation. The cell suspensions were then centrifuged over ficoll paque and treated identically to the lymphocytes obtained from peripheral blood. All procedures were carried out under the guidelines for animal use and with institutional board approval for human use.
The “ragged” morphology of the whole-cell currents in principal cells and lymphocytes has generated some concern about the identity of the channels that are activated by aldosterone. To address this concern, single channel characteristics of the sodium conductors expressed by human lymphocytes were studied.
To test the amiloride sensitivity of the single channels, outside-out patches were formed because amiloride only interacts with the outside surface of the channels. A “rundown” phenomena typical of ENaC in the inside-out patch experiments was noted.

SMILES: C[C@]12CCC(=O)C=C1CC[C@@H]1[C@@H]2[C@@H](O)C[C@]2(C=O)[C@@H](C(=O)CO)CC[C@@H]12 [aldosterone]
- effect on inward currents with mineralocorticoid receptor inhibition ([1]; rabbit principal cells pre-treated with 1 μM spironolactone, 100 nM aldosterone): specifically activated the inward currents
- effect on inward currents at hyperpolarized membrane potential clamp voltages ([1]; rabbit principal cells, 100 nM aldosterone in bath): specific activation of the inward currents
- mean current measured at EK+ (−80 mV) ([1]; rabbit principal cells): significantly increased the current
- time to aldosterone-stimulated ENaC activation ([1]; rabbit principal cells, whole-cell clamp, ATP-supplemented pipette solution): within seconds
- acute effect on principal cells ([2]; aldosterone): no acute affect
- mean current measured at EK+ (−80 mV) ([2]; aldosterone): did not alter the current
- unitary conductance ([3]; cells treated with 100 nM aldosterone): unchanged

SMILES: N=C(N)NC(=O)c1nc(Cl)c(N)nc1N [amiloride]
- inhibition of aldosterone-activated currents ([1]; rabbit principal cells, 2 μM amiloride in the continued presence of aldosterone): inhibited completely
- mean current measured at EK+ (−80 mV) ([1]; rabbit principal cells): returned the conductance to the basal level
- mean current measured at EK+ (−80 mV) ([2]; aldosterone): restored the current to the basal level
- single channel activity ([3]; amiloride 2 μM): completely abolished
- inhibition of single channels ([3]; amiloride concentration close to IC50 ([…] nM)): Incomplete inhibitory action
- single channel activity ([3]; cells treated with 100 nM aldosterone, amiloride 2 μM final concentration in bath): virtually abolished

SMILES: CC(=O)S[C@@H]1CC2=CC(=O)CC[C@]2(C)[C@H]2CC[C@@]3(C)[C@@H](CC[C@@]34CCC(=O)O4)[C@H]12 [spironolactone]
- effect on inward currents ([1]; rabbit principal cells, 1 μM spironolactone for 1 hour prior to whole-cell patch clamp): no effect on the inward currents

SMILES: NC(=O)CC[C@@H]1NC(=O)[C@H](Cc2ccccc2)NC(=O)[C@H](Cc2ccc(O)cc2)NC(=O)[C@@H](N)CSSC[C@@H](C(=O)N2CCC[C@H]2C(=O)N[C@@H](CCCN=C(N)N)C(=O)NCC(N)=O)NC(=O)[C@H](CC(N)=O)NC1=O [vasopressin]
- mean current measured at EK+ (−80 mV) ([1]; rabbit principal cells): had no additional effect
- further activation of inward currents after ENaC activation by aldosterone ([1]; rabbit principal cells, vasopressin after aldosterone): did not activate the inward currents any further
- activation of amiloride sensitive inward currents ([2]; 250 nM vasopressin after aldosterone): acute specific activation of the amiloride sensitive inward currents
- mean current measured at EK+ (−80 mV) ([2]; aldosterone): increased it significantly
